# Test results: patent US20240109915A1, “NOVEL ACC INHIBITORS” (Pfizer Inc., priority 2022, published 2024)
# How the values were obtained:
# [1] = target: recombinant human ACC1 (rhACC1) (Homo sapiens (Human), UniProt Q13085); test: Transcreener ADP detection FP assay, direct inhibition of rhACC1; type: biochemical; settings: Geomean IC50, n ≥ 2 unless * then n = 1; 50 μM ATP, 30 μM acetyl-CoA
# Method: The direct inhibition of ACC1 for the compounds of the present invention was determined using preparations of recombinant human ACC1 (rhACC1) (SEQ ID NO. 1)
# Two liters of SF9 cells, infected with recombinant baculovirus containing full length human ACC1 cDNA, were suspended in ice-cold lysis buffer (25 mM Tris, pH 7.5; 150 mM NaCl; 10% glycerol; 5 mM imidazole (EMD Bioscience; Gibbstown, NJ); 2 mM TCEP (BioVectra; Charlottetown, Canada); Benzonase nuclease (10000 U/100 g cell paste; Novagen; Madison, WI); EDTA-free protease inhibitor cocktail (1 tab/50 ml; Roche Diagnostics; Mannheim, Germany). Cells were lysed by 3 cycles of freeze-thaw and centrifuged at 40,000×g for 40 minutes (4° C.). Supernatant was directly loaded onto a HisTrap FF crude column (GE Healthcare; Piscataway, NJ) and eluted with an imidazole gradient up to 0.5 M over 20 column volumes (CV). ACC1-containing fractions were pooled and diluted 1:5 with 25 mM Tris, pH 7.5, 2 mM TCEP, 10% glycerol and direct loaded onto a CaptoQ (GE Healthcare) column and eluted with an NaCl gradient up to 1 M over 20 CV's. Phosphate groups were removed from purified ACC1 by incubation with lambda phosphatase (100 U/10 μM target protein; New England Biolabs; Beverly, MA) for 14 hours at 4° C.; okadaic acid was added (1 μM final concentration; Roche Diagnostics) to inhibit the phosphatase. Purified ACC1 was exchanged into 25 mM Tris, pH 7.5, 2 mM TCEP, 10% glycerol, 0.5 M NaCl by 6 hour dialysis at 4° C. Aliquots were prepared and frozen at −80° C.
# Measurement of rhACC1 Inhibition rhACC1 was assayed in a Corning #3820 (Corning, Tewksbury, MA) 384-well plate using the Transcreener ADP detection FP assay kit (Bellbrook Labs, Madison, Wisconsin) using the manufacturer's recommended conditions for a 50 μM ATP reaction. The final conditions for the assay were 50 mM HEPES, pH 7.2, 10 mM MgCl2, 7.5 mM tripotassium citrate, 2 mM DTT, 0.1 mg/mL BSA, 30 μM acetyl-CoA, 50 μM ATP, and 10 mM KHCO3. Typically, a […] was run for 60 min at room temp, and 10 μl of Transcreener stop and detect buffer was added and the combination incubated at room temp for an overnight (18 hours). The data was acquired on an Envision Fluorescence reader (PerkinElmer) using a 620 excitation Cy5 FP general dual mirror, 620 excitation Cy5 FP filter, 688 emission (S) and a 688 (P) emission filter.
# SZ95 sebocytes = test: Radiometric measurement of de novo lipogenesis in cultured human sebocytes; type: cell-based; settings: Geomean IC50, n>2 unless * then n=1, 14C acetate incorporation into lipids (DNL)
# Method: SZ95 sebocytes were grown in Human Sebocyte Growth Medium (HSGM) containing Sebomed® basal medium (Sigma-Aldrich, F8205) supplemented with 10% heat-inactivated fetal bovine serum (Gibco, 10100-147), 1% penicillin/streptomycin (Gibco, 15070-063), 1 mM calcium chloride (Fisher, BP9742-10X5) and 5 ng/mL recombinant human epidermal growth factor (Gibco, PHG0311). At 90% confluence, cells were washed with PBS and then detached with 0.05% Trypsin-EDTA (Gibco, 25300054). Prior to starting the assay, cells were centrifuged and resuspended in HSGM containing 5% charcoal-stripped serum (Life Technologies, 12676-029) instead of 10% heat-inactivated fetal bovine serum. Cells were added to 24-well plates at a density of 0.25×10^6 cells/well and incubated overnight at 37° C. to allow the cells to adhere to the culture plate. Cells were then treated with a dose response of compound (30, 1, 0.03, 0.006, 0.0009, 0.0002, and 0.00003 μM) with each concentration tested in duplicate. Briefly, compounds were dissolved in DMSO stocks and diluted 1:1000 into HSGM with charcoal-stripped media. The vehicle control wells were treated with 0.1% DMSO. After a 1-hour preincubation with compound or vehicle at 37° C., 0.25 μCi ^14C sodium acetate (American Radiolabeled Chemicals: ARC, 0173A) was added to each well. Plates were incubated for an additional two hours at 37° C. At the end of the incubation period, cells were removed from incubator, placed on ice, and then washed twice with ice-cold PBS to remove free ^14C-sodium acetate. Plates were sealed and stored at −20° C. until analysis. To induce lysis, 125 μL of mammalian protein extraction reagent (MPER; Fisher, 78501) was added to each well. Plates were shaken for 1 hour at room temperature and lysates transferred to individual 2 mL polypropylene tubes. Wells were then washed with 175 μL PBS, which was added to lysates. A chloroform:methanol solution (1:1 v/v, 450 μL) was added to each tube. All tubes were vortexed for 10 seconds and centrifuged at 14,000×g for 5 minutes at room temperature to separate the aqueous and organic phases. A 25 μL aliquot was removed from the bottom organic layer of each sample and added to 6 mL Optiphase Supermix scintillation fluid (PerkinElmer, 1200-439). Counts of ^14C were assessed by scintillation counting. DNL (counts of ^14C incorporated into lipids) was expressed as a percentage for compound treated cells relative to the vehicle control. IC50 values were determined using a non-linear regression (four parameter with variable slope) in GraphPad Prism.
SMILES,IC50 [1],IC50 (SZ95 sebocytes)
COc1cc(C(=O)N2CCC3(CC2)CC(=O)c2nc(C(C)(C)C)sc2C3)cc(OC)c1C [Example 81],11.7 nM,47.2 nM
COc1cc(C(=O)N2CCC3(CC2)CC(=O)c2nc(C(C)(C)C)sc2C3)cc2c(C3CC3)nccc12 [Example 99],3.9 nM,10 nM
"Cc1cc(C(=O)N2CCC3(CC2)CC(=O)c2nc(C(C)(C)C)sc2C3)cc2c(Cl)c[nH]c12 [Example 42, 2-(tert-butyl)-1′-(3-chloro-7-methyl-1H-indole-5-carbonyl)-5H-spiro[benzo[d]thiazole-6,4′-piperidin]-4(7H)-one]",3.1 nM,15.9 nM
"Cc1cc(C(=O)N2CCC3(CC2)CC(=O)c2nc(C(C)(C)C)sc2C3)cc2cc[nH]c12 [Example 17, 2-(tert-butyl)-1′-(7-methyl-1H-indole-5-carbonyl)-5H-spiro[benzo[d]thiazole-6,4′-piperidin]-4(7H)-one]",9.6 nM,15.6 nM
"Cc1cc(C(=O)N2CCC3(CC2)CC(=O)c2nc(C(C)(C)C)sc2C3)cc2ccccc12 [Example 16, 2-(tert-butyl)-1′-(4-methyl-2-naphthoyl)-5H-spiro[benzo[d]thiazole-6,4′-piperidin]-4(7H)-one]",7.3 nM,18.1 nM
"CNc1ccc2c(C)cc(C(=O)N3CCC4(CC3)CC(=O)c3nc(C(C)(C)C)sc3C4)cc2n1 [Example 38, 2-(tert-butyl)-1′-(5-methyl-2-(methylamino)quinoline-7-carbonyl)-5H-spiro[benzo[d]thiazole-6,4′-piperidin]-4(7H)-one]",4.9 nM,14.2 nM
Cn1ccc2c(Cl)cc(C(=O)N3CCC4(CC3)CC(=O)c3nc(C(C)(C)C)sc3C4)cc21 [Example 79],4.1 nM,16.7 nM
"CNc1cnc2c(C)cc(C(=O)N3CCC4(CC3)CC(=O)c3nc(C(C)(C)C)sc3C4)cc2c1 [Example 15, 2-(tert-butyl)-1′-(8-methyl-3-(methylamino)quinoline-6-carbonyl)-5H-spiro[benzo[d]thiazole-6,4′-piperidin]-4(7H)-one]",3.4 nM,12.9 nM
Cc1cc(C(=O)N2CCC3(CC2)CC(=O)c2nc(C(C)(C)C)sc2C3)cc2cccnc12 [Example 48],10000 nM,
Cc1c(O)c(C(=O)N2CCC3(CC2)CC(=O)c2nc(C(C)(C)C)sc2C3)cc2ccccc12 [Example 85],7 nM,
"CCOc1cc(C(=O)N2CCC3(CC2)Cc2sc(C(C)(C)C)nc2C(O)C3)cc2c(C)nn(C)c12 (racemic) [Example 109, rac-(R)-(2-(tert-butyl)-4-hydroxy-4,7-dihydro-5H-spiro[benzo[d]thiazole-6,4′-piperidin]-1′-yl)(7-ethoxy-1,3-dimethyl-1H-indazol-5-yl)methanone]",23.2 nM,
CNc1cc(C(=O)N2CCC3(CC2)CC(=O)c2nc(C(C)(C)C)sc2C3)cc(-c2ccccc2)n1 [Example 71],13.6 nM,
"CCc1nccc2c(OC)cc(C(=O)N3CCC4(CC3)CC(=O)c3nc(C(C)(C)C)sc3C4)cc12 [Example 29, 2-(tert-butyl)-1′-(1-ethyl-5-methoxyisoquinoline-7-carbonyl)-5H-spiro[benzo[d]thiazole-6,4′-piperidin]-4(7H)-one]",11.1 nM,
COc1cc(C(=O)N2CCC3(CC2)CC(=O)c2nc(C(C)(C)C)sc2C3)cc2c1c(C)nn2C [Example 103],5.4 nM,
CNc1nc2ccc(OC)cc2cc1C(=O)N1CCC2(CC1)CC(=O)c1nc(C(C)(C)C)sc1C2 [Example 77],9.4 nM,
COc1cc(C(=O)N2CCC3(CC2)CC(=O)c2nc(C(C)(C)C)sc2C3)nc2c(OC)cccc12 [Example 86],14.3 nM,

SMILES,IC50 [1],IC50 (SZ95 sebocytes)
Cc1c[nH]c2c(C)cc(C(=O)N3CCC4(CC3)CC(=O)c3nc(C(C)(C)C)sc3C4)cc12 [Example 92],2.4 nM,
Cc1n[nH]c2c(C)cc(C(=O)N3CCC4(CC3)CC(=O)c3nc(C(C)(C)C)sc3C4)cc12 [Example 45],7.6 nM,
"CCNc1ccc2ccc(C(=O)N3CCC4(CC3)CC(=O)c3nc(C(C)(C)C)sc3C4)cc2n1 [Example 32, 2-(tert-butyl)-1′-(2-(ethylamino)quinoline-7-carbonyl)-5H-spiro[benzo[d]thiazole-6,4′-piperidin]-4(7H)-one]",3.5 nM,
COc1cc(C(=O)N2CCC3(CC2)CC(=O)c2nc(C(C)(C)C)sc2C3)cc2[nH]ccc12 [Example 61],4.4 nM,30.8 nM
COc1ccc(C)c2[nH]c(C(=O)N3CCC4(CC3)CC(=O)c3nc(C(C)(C)C)sc3C4)cc12 [Example 56],5.8 nM,
"COc1c(C)cc(C(=O)N2CCC3(CC2)CC(=O)c2nc(C(C)(C)C)sc2C3)c2[nH]ncc12 [Example 36, 2-(tert-butyl)-1′-(4-methoxy-5-methyl-1H-indazole-7-carbonyl)-5H-spiro[benzo[d]thiazole-6,4′-piperidin]-4(7H)-one]",23.2 nM,
"COc1cc(C(=O)N2CCC3(CC2)CC(=O)c2nc(C(C)C)sc2C3)cc2c(C)nn(C)c12 [Example 10, 2-isopropyl-1′-(7-methoxy-1,3-dimethyl-1H-indazole-5-carbonyl)-5H-spiro[benzo[d]thiazole-6,4′-piperidin]-4(7H)-one]",10 nM,
COc1cc(C(=O)N2CCC3(CC2)CC(=O)c2nc(C(C)(C)C)sc2C3)cc2cc[nH]c12 [Example 106],12.9 nM,
CC(C)(C)c1nc2c(s1)CC1(CCN(C(=O)c3ccc4nccc(O)c4c3)CC1)CC2=O [Example 72],10000 nM,
Cc1c[nH]c2ccc(C(=O)N3CCC4(CC3)CC(=O)c3nc(C(C)(C)C)sc3C4)cc12 [Example 64],11.8 nM,
CC(C)(C)c1nc2c(s1)CC1(CCN(C(=O)c3ccc4[nH]cc(Cl)c4c3)CC1)CC2=O [Example 65],13 nM,
CN(C)c1cc(C(=O)N2CCC3(CC2)CC(=O)c2nc(C(C)(C)C)sc2C3)cc(-c2ccccc2)n1 [Example 68],3.9 nM,
Cc1cc(C(=O)N2CCC3(CC2)CC(=O)c2nc(C(C)(C)C)sc2C3)cc2[nH]ccc12 [Example 62],3.6 nM,
"Cc1n[nH]c2c(C)cc(C(=O)N3CCC4(CC3)CC(=O)c3nc(C5(C)CC5)sc3C4)cc12 [Example 1, 1′-(3,7-dimethyl-2H-indazole-5-carbonyl)-2-(1-methylcyclopropyl)-5H-spiro[benzo[d]thiazole-6,4′-piperidin]-4(7H)-one]",10.6 nM,
"Cc1cc(C(=O)N2CCC3(CC2)CC(=O)c2nc(C(C)(C)C)sc2C3)c2[nH]ncc2c1Cl [Example 34, 2-(tert-butyl)-1′-(4-chloro-5-methyl-1H-indazole-7-carbonyl)-5H-spiro[benzo[d]thiazole-6,4′-piperidin]-4(7H)-one]",1.3 nM,
